Assay results taken from PubChem BioAssay (NCI).
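How tested: cells in 96-well plates exposed to compound for 48 hours at five concentrations. Definition used: TGI = concentration required for complete inhibition of growth.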

Columns and labels:
Assay in all cases: DTP human tumour cell line panel, 48 h
[1] = tested on: EKVX NSCLC
[2] = tested on: UACC-62 melanoma
[3] = tested on: TK-10 renal
[4] = tested on: SF-539 CNS
[5] = tested on: HCT-116 colon
[6] = tested on: MOLT-4 leukemia
[7] = tested on: OVCAR-3 ovarian
[8] = tested on: UACC-257 melanoma
[9] = tested on: 786-0 renal
[10] = tested on: HL-60(TB) leukemia
[11] = tested on: MALME-3M melanoma
[12] = tested on: COLO 205 colon
[13] = tested on: NCI-H23 lung
[14] = tested on: HCC-2998 colon
[15] = tested on: UO-31 renal
[16] = tested on: SW-620 colon
[17] = tested on: OVCAR-8 ovarian
[18] = tested on: HOP-62 NSCLC
[19] = tested on: M19-MEL melanoma
[20] = tested on: A549 NSCLC
[21] = tested on: U251 CNS
[22] = tested on: HCT-15 colon
[23] = tested on: SF-295 CNS
[24] = tested on: ACHN renal
[25] = tested on: SK-OV-3 ovarian
[26] = tested on: SR leukemia
[27] = tested on: SK-MEL-2 melanoma
[28] = tested on: LOX IMVI melanoma
[29] = tested on: KM20L2 colon
[30] = tested on: SNB-19 CNS
[31] = tested on: RPMI-8226 leukemia
[32] = tested on: IGROV1 ovarian
[33] = tested on: XF 498 CNS
[34] = tested on: K-562 leukemia
[35] = tested on: SN12C renal
[36] = tested on: NCI-H522 lung
[37] = tested on: OVCAR-5 ovarian
[38] = tested on: CAKI-1 renal
[39] = tested on: SK-MEL-5 melanoma
[40] = tested on: DMS 114 small cell lung
[41] = tested on: M14 melanoma
[42] = tested on: SK-MEL-28 melanoma
[43] = tested on: CCRF-CEM leukemia
[44] = tested on: NCI-H226 lung
[45] = tested on: SNB-78 CNS
[46] = tested on: OVCAR-4 ovarian
[47] = tested on: KM12 colon
[48] = tested on: DLD-1 colon
[49] = tested on: DMS 273 small cell lung
[50] = tested on: NCI-H460 lung
[51] = tested on: RXF 393 renal
[52] = tested on: HOP-18 NSCLC
[53] = tested on: SNB-75 CNS
[54] = tested on: HT29 colon

Structure (SMILES): CCOC(=O)/C(=C\c1ccc(OCc2ccccc2)c(OC)c1)C(=O)c1ccccc1
- TGI [1]: 66.2 µM
- TGI [2]: 48.4 µM
- TGI [3]: 61 µM
- TGI [4]: 31.2 µM
- TGI [5]: 31.3 µM
- TGI [6]: 43.6 µM
- TGI [7]: 58.1 µM
- TGI [8]: > 10 µM
- TGI [9]: 37.7 µM
- TGI [10]: 49 µM
- TGI [11]: 32.3 µM
- TGI [12]: 99.2 µM
- TGI [13]: 35.2 µM
- TGI [14]: > 100 µM
- TGI [15]: 32.4 µM
- TGI [16]: 40 µM
- TGI [17]: > 10 µM
- TGI [18]: 33.6 µM
- TGI [19]: 50 µM
- TGI [20]: > 10 µM
- TGI [21]: 31.1 µM
- TGI [22]: 42.3 µM
- TGI [23]: 46.8 µM
- TGI [24]: 34.8 µM
- TGI [25]: > 100 µM
- TGI [26]: > 100 µM
- TGI [27]: 40.7 µM
- TGI [28]: 30 µM
- TGI [29]: 34.3 µM
- TGI [30]: 66.4 µM
- TGI [31]: 86.5 µM
- TGI [32]: 64.6 µM
- TGI [33]: 32.3 µM
- TGI [34]: 48.3 µM
- TGI [35]: 45.6 µM
- TGI [36]: 32.6 µM
- TGI [37]: 48.6 µM
- TGI [38]: 64.7 µM
- TGI [39]: 31.9 µM
- TGI [40]: 41.4 µM
- TGI [41]: 30.5 µM
- TGI [42]: 30.4 µM
- TGI [43]: 58.5 µM
- TGI [44]: 42.5 µM
- TGI [45]: 76.8 µM
- TGI [46]: > 100 µM
- TGI [47]: 41.2 µM

Structure (SMILES): CC1Cc2c(N)nc(NN)nc2NC1=O (centres undefined)
- TGI [1]: > 100 µM
- TGI [2]: > 100 µM
- TGI [3]: > 100 µM
- TGI [4]: > 100 µM
- TGI [5]: > 100 µM
- TGI [6]: > 100 µM
- TGI [7]: > 100 µM
- TGI [8]: > 100 µM
- TGI [9]: > 100 µM
- TGI [10]: > 100 µM
- TGI [11]: > 100 µM
- TGI [48]: > 100 µM
- TGI [12]: > 100 µM
- TGI [13]: > 100 µM
- TGI [15]: > 100 µM
- TGI [16]: > 100 µM
- TGI [17]: > 100 µM
- TGI [49]: > 100 µM
- TGI [50]: > 100 µM
- TGI [51]: > 100 µM
- TGI [18]: > 100 µM
- TGI [19]: > 100 µM
- TGI [20]: > 100 µM
- TGI [21]: > 100 µM
- TGI [22]: > 100 µM
- TGI [23]: > 100 µM
- TGI [52]: > 100 µM
- TGI [24]: > 100 µM
- TGI [25]: > 100 µM
- TGI [28]: > 100 µM
- TGI [29]: > 100 µM
- TGI [30]: > 100 µM
- TGI [31]: > 100 µM
- TGI [32]: > 100 µM
- TGI [33]: > 100 µM
- TGI [34]: > 100 µM
- TGI [53]: > 100 µM
- TGI [35]: > 100 µM
- TGI [36]: > 100 µM
- TGI [39]: > 100 µM
- TGI [40]: > 100 µM
- TGI [41]: > 100 µM
- TGI [42]: > 100 µM
- TGI [43]: > 100 µM
- TGI [54]: > 100 µM
- TGI [44]: > 100 µM
- TGI [47]: > 100 µM
